Laboratory results as given in ChEMBL document CHEMBL1201862, “PubChem BioAssay data set” (2004).
Active and inactive are the calls of the source. No rule for the calls is given here.

Tests used:
[1] = target: T1, High affinity choline transporter 1 (Homo sapiens, UniProt Q9GZV3); experiment: human choline transporter blockers, potency – cell-based, 5-point CRC, membrane potential dye, dose response (AID 504840); type: functional
T1 sequence (Q9GZV3 whole entry): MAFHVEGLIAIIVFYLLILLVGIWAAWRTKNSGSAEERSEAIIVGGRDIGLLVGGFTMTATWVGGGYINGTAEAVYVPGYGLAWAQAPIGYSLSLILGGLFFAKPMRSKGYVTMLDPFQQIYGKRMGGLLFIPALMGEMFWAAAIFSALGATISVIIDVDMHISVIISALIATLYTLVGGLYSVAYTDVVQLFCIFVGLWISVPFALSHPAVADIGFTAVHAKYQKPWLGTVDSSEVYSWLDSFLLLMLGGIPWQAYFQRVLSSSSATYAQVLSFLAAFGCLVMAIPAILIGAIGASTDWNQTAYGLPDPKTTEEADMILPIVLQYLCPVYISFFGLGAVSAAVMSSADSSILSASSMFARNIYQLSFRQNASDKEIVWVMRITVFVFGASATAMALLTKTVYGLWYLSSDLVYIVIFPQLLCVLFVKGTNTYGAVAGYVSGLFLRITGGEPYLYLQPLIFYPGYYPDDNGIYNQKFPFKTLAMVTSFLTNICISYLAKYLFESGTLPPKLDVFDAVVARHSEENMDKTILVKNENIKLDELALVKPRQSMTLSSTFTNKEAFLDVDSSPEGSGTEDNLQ

[2] = target: T1, High affinity choline transporter 1; experiment: human choline transporter blockers, potency – cell-based, 10-point CRC, membrane potential dye, dose response (AID 588401); type: functional;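 also: membrane potential dye fluorescence of choline-evoked depolarization via CHT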

- IC50 [1]: 9.45 µM (active)
- IC50 [2]: 6.48 µM (active)
Structure (SMILES): CC(/C=C1\SC(=S)N(CC(=O)O)C1=O)=C\c1ccccc1
